In US4260623A, “Hexahydro-1-arylspiro(3H-oxazolo(3,4-A)pyridine-3,4'-piperidene) antidepressants, pharmaceutical compositions thereof and method of use thereof” (Warner-Lambert Company, priority 1979, dated 1981):

Tests used:
[1] = system: neuronal-uptake of norepinephrine; test: inhibition of the neuronal-uptake of norepinephrine (tritium content of the hearts); format: in vivo; conditions: Mus musculus, 1 h; at 50 mg/kg oral, male mice, heart; norepinephrine-3H i.v. one hour after dosing; vs vehicle control; read-out: % Inhibition of Amine Uptake, Norepinephrine
Method: (§1) Int. Pharmacoldyn 225, 317-329 (1977)].
(§2) According to this procedure, male mice weighing approximately 25 grams are fasted overnight, then groups of five or more mice are dosed with the test compound or methocel vehicle at 50 mg/kg by oral route. After an interval of one hour, the mice are given an intravenous injection of a saline solution containing 0.5 μCi of norepinephrine-^3 H, 0.5 μCi of serotonin^14 C, and 1 mg/ml of ascorbic acid. The mice are then sacrificed about 15 minutes later, their hearts and spleens rinsed and weighed, and dissolved in a tissue solubilizer. The tritium content of the hearts and carbon-14 content of the spleen are determined by scintillation counting. The percent inhibition of uptake in comparison with the vehicle control group is then recorded.

[2] = system: neuronal-uptake of serotonin; test: inhibition of the neuronal-uptake of serotonin (carbon-14 content of the spleen); format: in vivo; conditions: Mus musculus, 1 h, at 50 mg/kg oral, male mice, serotonin-14C i.v. one hour after dosing, vs vehicle control, read-out: % Inhibition of Amine Uptake, Serotonin
Method: as §1, §2

Compound	inhibition at 50 mg/kg [1] [%]	inhibition at 50 mg/kg [2] [%]
c1ccc(C2OC3(CCNCC3)N3CCCCC23)cc1 (stereo not shown) [Example 2, Hexahydro-1-phenylspiro[3H-oxazolo[3,4-a]pyridine-3,4'-piperidine]]	70	83
CN1CCC2(CC1)OC(c1ccccc1)C1CCCCN12 (stereo not shown) [Example 3, Hexahydro-1'-methyl-1-phenylspiro[3H-oxazolo[3,4-a]pyridine-3,4'-piperidine]]	73	73
Fc1cccc(C2OC3(CCN(Cc4ccccc4)CC3)N3CCCCC23)c1 (stereo not shown) [Example 4, hexahydro-1'-benzyl-1-(3-fluorophenyl)spiro[3H-oxazolo[3,4-a]pyridine-3,4'-piperidine]]	58	79
Fc1cccc(C2OC3(CCNCC3)N3CCCCC23)c1 (stereo not shown) [Example 5, hexahydro-1-(3-fluorophenyl)spiro[3H-oxazolo[3,4-a]pyridine-3,4'-piperidine]]	70	89
COc1ccccc1C1OC2(CCNCC2)N2CCCCC12 (stereo not shown) [Example 7, hexahydro-1-(2-methoxyphenyl)spiro[3H-oxazolo[3,4-a]pyridine-3,4'-piperidine]]	67	71
FC(F)(F)c1cccc(C2OC3(CCNCC3)N3CCCCC23)c1 (stereo not shown) [Example 9, hexahydro-1-[3-(trifluoromethyl)phenyl]spiro[3H-oxazolo[3,4-a]pyridine-3,4'piperidine]]	64	86
Fc1ccc(C2OC3(CCNCC3)N3CCCCC23)cc1 (stereo not shown) [Example 11, Hexahydro-1-(4-fluorophenyl)spiro[3H-oxazolo[3,4-a]pyridine-3,4'-piperidine]]	73	89
Clc1ccc(C2OC3(CCN(Cc4ccccc4)CC3)N3CCCCC23)cc1 (stereo not shown) [Example 12, hexahydro-1'-benzyl-1-(4-chlorophenyl)spiro[3H-oxazolo[3,4-a]pyridine-3,4'-piperidine]]	59	84
CN1CCC2(CC1)OC(c1ccc(Cl)cc1)C1CCCCN12 (stereo not shown) [Example 13, hexahydro-1'-methyl-1-(4-chlorophenyl)spiro[3H-oxazolo[3,4-a]pyridine-3,4'-piperidine]]	77	91
COc1ccc(C2OC3(CCNCC3)N3CCCCC23)cc1 (stereo not shown) [Example 14, Hexahydro-1-(4-methoxyphenyl)spiro[3H-oxazolo[3,4-a]pyridine-3,4'-piperidine]]	57	89
c1ccc(C2OC3(CCN(CC4CC4)CC3)N3CCCCC23)cc1 (stereo not shown) [Example 15, hexahydro-1'-(cyclopropylmethyl)-1-phenylspiro[3H-oxazolo[3,4-a]pyridine-3,4'-piperidine]]	62	77
